From patent publication US9486502B2, “Methods of administering interferon gamma to absorb fluid from the subretinal space” (The United States of America, as represented by the …, priority 2008, dated 2016)
Structures can show the parent of a compound that is named as a salt.

Key:
Format in all cases: cell-based, human
hfRPE monolayers [1] = assay: fluid transport (JV, TEP, RT) across hfRPE monolayers in modified Üssing chamber; details: for effect on JV after P38 MAPK inhibitor: CFTR inhibitor added to basal bath after P38 MAPK inhibitor
Source text: Confluent monolayers of hfRPE cultured on transwells were mounted in a modified Üssing chamber and transepithelial water flow measurements (JV) were made with a capacitance probe technique as described previously in Maminishkis, A., et al., Invest Ophthalmol Vis Sci, 2006, 47, 3612-3624; Shi, G., et al., Invest Ophthalmol Vis Sci, 2008, 49, 4620-4630; Edelman, J. L., et al., Invest Ophthalmol Vis Sci, 1991, 32, 3033-3040; Jiang, C., et al., Science, 1993, 262, 424-427; and Maminishkis, A., et al., Invest Ophthalmol Vis Sci, 2002, 43, 3555-3566, each incorporated herein by reference in its entirety.
Tissue viability was ascertained by recording transepithelial potential (TEP) and total tissue resistance (RT). It should be noted that the solution composition changes in this chamber were relatively slow (≈1-2 chamber volumes per minute) and the data sampling rate was once per minute, more than two orders of magnitude slower than the sampling rate in the electrophysiology chamber (see below). Therefore it was not possible to record fast changes, in seconds or minutes, in JV, TEP, or RT. After addition of IFNγ to the apical or basal baths, steady-state JV, TEP, and RT were recorded for 20-30 minutes. In control experiments, successive additions of IFNγ were made to test for the repeatability and reversibility of responses. To block IFNγ effects, RPE cells were incubated for 30-60 minutes with a blocking antibody against IFNγ R1, JAK inhibitor I, PKA inhibitors (H-89, EMD Biosciences; RP-8-Br-cAMPS, Sigma-Aldrich), nitric oxide synthase inhibitor (aminoguanidine hydrochloride, Sigma-Aldrich), P38 MAPK inhibitors (SB203580 or SB20290), or CHX. Other components of this signaling pathway were studied using P38 MAPK inhibitors (SB203580 and SB202190). Relatively specific Cl channel inhibitors, CFTRinh-172 or DIDS (EMD Biosciences, La Jolla, Calif.), were used to block cAMP or Ca^2+-activated Cl channels; experiments with CFTRinh-172 were performed as described in Muanprasat, C., et al., J Gen Physiol, 2004, 124, 125-137, incorporated herein by reference in its entirety. In chronic experiments, paired hfRPE tissues with matched RT values were incubated for 4-24 hours with IFNγ or CHX. The subsequent changes in JV, RT, and TEP were measured in Ringer's solution or serum free cell culture media as previously described in Shi, G., et al., Invest Ophthalmol Vis Sci, 2008 and Maminishkis, A., et al., Invest Ophthalmol Vis Sci, 2006, 47, 3612-3624, each incorporated herein by reference in its entirety. Intracellular levels of NO were elevated with 1-Hydroxy-2-oxo-3-(3-aminopropyl)-3-isopropyl-1-triazene (NOC-5, Enzo Life Sciences, Plymouth, Pa.). 8-Br-cGMP was purchased from Sigma-Aldrich.

hfRPE monolayers [2] = assay: electrophysiology of hfRPE monolayers (TEP, RT, VA, VB, RA/RB)
Source text: Equivalent circuit analysis and electrophysiological methods have been previously described in Quinn, R. H., et al., Invest Ophthalmol Vis Sci, 1992, 33, 3513-3527; Joseph D. P., et al., J Physiol, 1991, 435, 439-463; and Maminishkis, A., et al., 2006, Ophthalmol Vis Sci, 47, 3612-3624each incorporated herein by reference in its entirety.
Briefly, confluent monolayers of cultured hfRPE were mounted on a nylon mesh support and clamped into a modified Üssing chamber that allowed the rapid exchange of Ringer's solution (≈10 chamber volumes per minute) and the measurement of fast electrical changes in seconds. The electrical connections to the apical and basal chambers were made with Ringer-agar bridges in series with calomel electrodes. Intracellular potentials were recorded with conventional microelectrodes, back-filled with 150 mM KCl, with resistances of 80 to 200 Ma The apical and basolateral membrane potentials (VA and VB) are calculated as the voltage differences between the intracellular microelectrode and the apical and basal bath electrodes, respectively. The resistances of the apical and basolateral membranes were designated RA and RB, respectively, and the transepithelial potential (TEP=VB-VA) is the voltage difference between the apical and basal bath electrodes. Epithelial resistance parameters were obtained by passing 4-μA bipolar current pulses (i) using Ag—AgCl electrodes, one located in the apical chamber and the other located in the basal chamber. The total transepithelial resistance (Rt) is calculated from the current-induced changes in TEP (Rt=ΔTEP/i). The apparent membrane resistance ratio (RA/RB) is calculated from the ratio of change in VA to change in VB (RA/RB=ΔVA/ΔVB).
The control Ringer's solution for measurements of TEP and Rt in culture hfRPE contained 116 mM NaCl, 5 mM KCl, 26.2 mM NaHCO3, 1 mM NaH2PO4, 1 mM Mg Cl2, 1.8 mM CaCl2, 10 mM glucose, and 2 mM Taurine. The osmolarity of control Ringer's solution was 295 mOsm. The solutions were maintained at 35° C. and a pH of 7.4, and were bubbled with 10% O2, 5% CO2 and 85% N2. 8-Bromo-cAMP (or Dibutyryl cAMP), 8-Br-cGMP, and forskolin were obtained from Sigma-Aldrich.

hfRPE cells = assay: immunoblotting of JAK-STAT / MAP kinase signalling proteins in hfRPE; details: 4 hours
Protocol: Immunoblotting was performed as previously described in Li, R. et al., 2007, Invest Ophthalmol Vis Sci, 48, 5722-5732, incorporated by reference in its entirety herein. Primary cultures of hfRPE and native human adult RPE cells were lysed using RIPA buffer (Sigma-Aldrich) supplemented with proteinase inhibitor cocktail (Roche). Total protein in the supernatant was measured (BCA™ protein assay, Pierce Biotechnology) and 20 µg of protein from cell lysate supernatants was electrophoresed on a 4-12% gradient Bis-Tris NuPAGE gel (Invitrogen) under reduced or non-reduced conditions. Resolved proteins were transferred to nitrocellulose membranes (membranes and XCell II™ Blot Module, Invitrogen).
The membranes were incubated with mouse anti-human IFNγ R1 monoclonal antibody (R&D Systems), anti-human IFNγ R2 (Santa Cruz Biotechnology), anti-human IFNAR1, anti-human IFNAR2 (Abcam), anti-IRF1, anti-IRF2, anti-IRF8 (Santa Cruz Biotechnology) or anti-CFTR antibody 217 (Cystic Fibrosis Foundation Therapeutics Inc., Bethesda, Md.), after blocking non-specific binding ((StartingBlock™ T20 (TBS), Pierce Biotechnology). Membranes were then incubated with horseradish peroxidase (HRP) conjugated secondary antibody (Pierce Biotechnology) and visualized using Supersignal® West Dura Extended Duration Substrate (Pierce Biotechnology) and imaged using an Autochemie™ system (UVP, Upland, Calif.). The antibody-specific bands for IRF-1, IRF-2, ICSBP (IRF-8) and GAPDH were around 91 kDa, […], respectively.
For phosphorylation studies, cells were starved for 24 hours in serum-free medium (“SFM,” MEM-α modification medium containing non-essential amino acids and Glutamine-Penicillin-Streptomycin). Cells were treated with IFNγ (5-50 ng/ml) in SFM at various time points at 37° C. and lysed with RIPA buffer supplemented with proteinase inhibitor cocktail (Roche) and Halt™ phosphatase inhibitor cocktail (Pierce Biotechnology). 40 μg of protein was electrophoresed. As in the immunoblotting experiments described above, except that the membranes were incubated with anti-phospho-p38 MAP kinase (Thr180/Tyr182), anti-p38 MAP kinase, anti-phospho-Stat1 (Tyr701), anti-phospho-Stat1 (Ser727) or anti-Stat1 antibodies, respectively (each from Cell signaling Technology, Danvers, Mass.). The antibody-specific bands for STAT1/phospho-STAT1 (Tyr701) were around 84 kDa. GAPDH was blotted together with anti-GAPDH antibody (Abcam) and used as loading control. Cyclohexamide (“CHX”; Sigma-Aldrich), a protein synthesis inhibitor, was used at 62 μM.
For CFTR immunoblotting analysis, confluent monolayers of hfRPE were homogenized on ice in isolation solution (250 mM Sucrose, 10 mM Tris-HCl, 10 mM MgCl2, 1 mM CaCl2, pH 7.4) supplemented with Halt™ protease inhibitor cocktail, EDTA-free. Nuclei and intact cells were removed with centrifugation (900×g for 10 minutes at 4° C., followed by centrifugation at 10,000×g for 5 minutes). Crude plasma membrane proteins were collected after centrifugation at 100,000×g for 1 hour at 4° C.

[3] = CFTRinh−172 basal bath after IFNγ
[4] = H-89 40 μM pre-treatment 30 minutes
[5] = SB203580 pretreatment ≧30 minutes, n=6

## Nc1nc2c(nc(Br)n2[C@@H]2O[C@@H]3COP(=O)(O)O[C@H]3[C@H]2O)c(=O)[nH]1 [8-Br-cGMP]
hfRPE monolayers [1]; 100 μM both baths, FIG. 21, from 6.0
  JV after 8-Br-cGMP: 19.5 μl·cm^−2·hr^−1
hfRPE monolayers [1]; four experiments, from 7.4±1.1
  Jv after 8-Br-cGMP: 15.8±1.6 μl·cm^−2·hr^−1

## O=C(O)c1ccc(/C=C2\SC(=S)N(c3cccc(C(F)(F)F)c3)C2=O)cc1 [CFTRinh−172]
hfRPE monolayers [1]; CFTR inhibitor 5 μM basal bath, NOC-5 250 μM, n=3
  effect on NOC-5 induced increase in Jv: blocked
hfRPE monolayers [1]; CFTR inhibitor added after H-89
  effect on IFNγ-induced fluid transport after H-89: no further effect
hfRPE monolayers [1]
  effect on JV after P38 MAPK inhibitor: further decrease
hfRPE monolayers [1]; listed as CFTR inhibitor
  effect on JV after P38 MAPK inhibitor: further decreased
hfRPE monolayers [1]; CFTRinh−172 5 μM basal bath, FIG. 14E
  decrease of the IFNγ-induced JV increase: ≈ 9.8 μl·cm^−2·hr^−1
hfRPE monolayers [1]; CFTRinh−172 5 μM, 11 experiments, from 16.6±1.2
  mean JV after inhibitor in IFNγ-treated hfRPE: 6.8±1.0 μl·cm^−2·hr^−1
hfRPE monolayers [1]; CFTRinh−172 5 μM, from 15.1, FIG. 14F
  JV after inhibitor in 24 hour IFNγ-treated hfRPE: 4.8 μl·cm^−2·hr^−1
hfRPE monolayers [1]; CFTRinh−172 added after IFNγ and basal DIDS, n=1
  decrease in JV: 12.6 μl·cm^−2·hr^−1
hfRPE monolayers [1]; CFTRinh−172 basal bath, no IFNγ, baseline 12.5 ±3.1, n=5
  baseline JV after inhibitor: 3.2 ±1.0 μl·cm^−2·hr^−1
hfRPE monolayers [1]; FIG. 21, from 19.5
  Jv after CFTR inhibitor in 8-Br-cGMP-treated hfRPE: 11.5 μl·cm^−2·hr^−1
hfRPE monolayers [1]; four experiments, from 15.8±1.6
  Jv after CFTR inhibitor in 8-Br-cGMP-treated hfRPE: 8.9±1.3 μl·cm^−2·hr^−1
hfRPE monolayers [2]; CFTRinh−172
  effect on cAMP-induced electrical changes: blocked
hfRPE monolayers [2]; [3]
  effect on RA/RB: slight decrease
  effect on RT: increased
  effect on TEP: decreased
  effect on both membrane potentials: hyperpolarize

## C[C@@H]1C[C@@H]([C@H](O)CC2CC(=O)NC(=O)C2)C(=O)[C@@H](C)C1 [CHX, cycloheximide]
hfRPE cells; CHX 62 μM, with IFNγ
  effect on IRF-2 protein: no effect
  effect on de novo synthesis of IRF-1: completely blocked
hfRPE cells; cycloheximide with IFNγ
  effect on STAT1 synthesis: partly inhibited
hfRPE monolayers [1]; 62 μM, apical and basal, 30 minutes
  effect of CHX per se on JV: no apparent change
hfRPE monolayers [1]; 4 hours of pre-treatment with CHX
  IFNγ-induced JV increase after CHX pre-treatment: no IFNγ-induced JV increase
hfRPE monolayers [1]; CHX 62 μM 30 minutes
  effect on ability of CFTRinh−172 to block IFNγ-induced JV increase: did not affect
hfRPE monolayers [1]; CHX 62 μM 30 minutes before IFNγ 5 ng/ml
  effect on IFNγ-induced increase in JV: no effect
hfRPE monolayers [1]; IFNγ 5 ng/ml + CHX 62 μM, 24 hours, IFNγ alone 15.9, FIG. 14I
  JV after IFNγ and CHX: 8.8 μl·cm^−2·hr^−1
hfRPE monolayers [1]; another experiment, IFNγ alone 14.9
  JV after IFNγ and CHX: 9.8 μl·cm^−2·hr^−1

## O=S(=O)(O)c1cc(N=C=S)ccc1C=Cc1ccc(N=C=S)cc1S(=O)(=O)O [DIDS]
hfRPE monolayers [1]; DIDS 500 μM, n=2
  effect on spontaneous steady-state JV: no effect
hfRPE monolayers [1]; DIDS, n=2
  effect on JV following CFTRinh−172 inhibition of IFNγ-induced JV: no further inhibition
hfRPE monolayers [1]; basal DIDS
  effect on IFNγ-induced JV increase: not affected

## O=S(=O)(NCCNC/C=C/c1ccc(Br)cc1)c1cccc2cnccc12 [H-89]
hfRPE monolayers [1]; H-89 40 μM after IFNγ
  effect on IFNγ stimulated JV increase: significantly blocked
hfRPE monolayers [1]; H-89 40 μM both sides, from 20.1±0.2
  JV after H-89 added to IFNγ-stimulated hfRPE: 8.3±1.3 μl·cm^−2·hr^−1
hfRPE monolayers [1]; [4]
  effect on baseline level of JV: no significant effect
  effect on the effect of IFNγ: completely blocked
hfRPE monolayers [1]; four experiments, steady-state baseline 12.8±5.2
  JV after H-89: 12.9±3.7 μl·cm^−2·hr^−1

## CC(C)N(CCCN)[N+]([O-])=NO [NOC-5, 1-Hydroxy-2-oxo-3-(3-aminopropyl)-3-isopropyl-1-triazene]
hfRPE monolayers [1]; NOC-5 apical and basal baths, n=3
  effect on JV: more than doubled

## Oc1ccc(-c2nc(-c3ccncc3)c(-c3ccc(F)cc3)[nH]2)cc1 [SB202190]
hfRPE monolayers [1]; SB202190 1-5 μM
  block of IFNγ stimulated fluid transport: approximately 46%

## C[S+]([O-])c1ccc(-c2nc(-c3ccncc3)c(-c3ccc(F)cc3)[nH]2)cc1 (stereo not drawn) [SB203580]
hfRPE monolayers [1]; SB203580 5 μM
  decrease of IFNγ-induced JV: approximately 62%
hfRPE monolayers [1]; SB 203580 5 μM apical and basal after IFNγ 5 ng/mL, n=9
  effect on IFNγ induced JV: decreased
hfRPE monolayers [1]; SB203580, n=3
  effect on JV following inhibition by basal bath CFTRinh−172: no further effect
hfRPE monolayers [1]; [5]
  effect on baseline level of JV: no significant effect
  effect on the effect of IFNγ: completely blocked

## N=C(N)NN [aminoguanidine hydrochloride]
hfRPE monolayers [1]; iNOS inhibitor 100 μM applied after IFNγ 5 ng/ml, n=3, hydrochloride
  effect on IFNγ induced increase in Jv: blocks
hfRPE monolayers [1]; iNOS inhibitor 100 μM applied after IFNγ 5 ng/ml, n=3, listed as aminoguandidie hydrochloride, hydrochloride
  effect on IFNγ induced increase in Jv: block
hfRPE monolayers [1]; pre-treatment with iNOS inhibitor, n=3
  effect on IFNγ induced increase in Jv: completely blocked
